US20060100431A1, “Biologically active compounds” (Amura Therapeutics Limited, priority 2002, published 2006)

biological target: Wild-type cruzipain (Trypanosoma cruzi, UniProt P25779); test: Trypanosoma cruzi cruzipain peptidase activity assay (Ki); type: biochemical; conditions: read-out: Ki, inhibitors of cruzain and cruzipains
Description: (§1) Unless otherwise stated, all general chemicals and biochemicals were purchased from either the Sigma Chemical Company, Poole, Dorset, U.K or from Fisher Scientific UK, Loughborough, Leicestershire, U.K. Absorbance assays were carried out in flat-bottomed 96-well plates (Spectra; Greiner Bio-One Ltd., Stonehouse, Gloucestershire, U.K.) using a SpectraMax PLUS384 plate reader (Molecular Devices, Crawley, U.K.). Fluorescence high throughput assays were carried out in either 384-well microtitre plates (Corning Costar 3705 plates, Fisher Scientific) or 96-well ‘U’ bottomed Microfluor W1 microtitre plates (Thermo Labsystems, Ashford, Middlesex, U.K.). Fluorescence assays were monitored using a SpectraMax Gemini fluorescence plate reader (Molecular Devices). For substrates employing either a 7-amino-4-methylcoumarin (AMC) or a 7-amino-4-trifluoromethylcoumarin (AFC) fluorophore, assays were monitored at an excitation wavelength of 365 nm and an emission wavelength of 450 nm and the fluorescence plate reader calibrated with AMC. For substrates employing a 3-amino-benzoyl (Abz) fluorophore, assays were monitored at an excitation wavelength of 310 nm and an emission wavelength of 445 nm; the fluorescence plate reader calibrated with 3-amino-benzamide (Fluka). Unless otherwise indicated, all the peptidase substrates were purchased from Bachem UK, St Helens, Merseyside, UK. Substrates utilizing fluorescence resonance energy transfer methodology (i.e. FRET-based substrates) were synthesized at Incenta Limited using published methods (Atherton & Sheppard, Solid Phase Peptide Synthesis, IRL Press, Oxford, U.K, 1989) and employed Abz (2-aminobenzoyl) as the fluorescence donor and 3-nitro-tyrosine [Tyr(NO2)] as the fluorescence quencher (Meldal, M. and Breddam, K., Anal. Biochem, 195, 141-147, 1991). Hydroxyethylpiperazine ethanesulfonate (HEPES), tris-hydroxylmethyl aminomethane (tris) base, bis-tris-propane and all the biological detergents (e.g. CHAPS, zwittergents, etc.) were purchased from CN Biosciences UK, Beeston, Nottinghamshire, U.K. Glycerol was purchased from Amersham Pharmacia Biotech, Little Chalfont, Buckinghamshire, U.K. Stock solutions of substrate or inhibitor were made up to 10 mM in 100% dimethylsulfoxide (DMSO) (Rathburns, Glasgow, U.K.) and diluted as appropriately required. In all cases the DMSO concentration in the assays was maintained at less than 1% (vol./vol.).
(§2) Assay protocols were based on literature precedent (Table 4; Barrett, A. J., Rawlings, N. D. and Woessner, J. F., 1998, Handbook of Proteolytic Enzymes, Academic Press, London and references therein) and modified as required to suit local assay protocols. Enzyme was added as required to initiate the reaction and the activity, as judged by the change in fluorescence upon conversion of substrate to product, was monitored over time. All assays were carried out at 25±1° C.
Wild-type cruzipain, derived from Trypanosoma cruzi Dm28 epimastigotes, was obtained from Dr. Julio Scharfstein (Instituto de Biofisica Carlos Chagas Filho, Universidade Federal do Rio de Janeiro, Rio de Janeiro, Brazil). Activity assays were carried out in 100 mM sodium phosphate, pH 6.75 containing 1 mM EDTA and 10 mM L-cysteine using 2.5 nM enzyme. […] The rate of conversion of substrate to product was derived from the slope of the increase in fluorescence monitored continuously over time.
(§3) The apparent inhibition constant (Ki) for each compound was determined on the basis that inhibition was reversible and occurred by a pure-competitive mechanism. The Ki values were calculated, from the dependence of enzyme activity as a function of inhibitor concentration, by direct regression analysis (Prism v 3.02) using Equation 2 (Cornish-Bowden, A., 1995.). [formula]

Wild-type cruzipain, sequence (P25779 whole entry): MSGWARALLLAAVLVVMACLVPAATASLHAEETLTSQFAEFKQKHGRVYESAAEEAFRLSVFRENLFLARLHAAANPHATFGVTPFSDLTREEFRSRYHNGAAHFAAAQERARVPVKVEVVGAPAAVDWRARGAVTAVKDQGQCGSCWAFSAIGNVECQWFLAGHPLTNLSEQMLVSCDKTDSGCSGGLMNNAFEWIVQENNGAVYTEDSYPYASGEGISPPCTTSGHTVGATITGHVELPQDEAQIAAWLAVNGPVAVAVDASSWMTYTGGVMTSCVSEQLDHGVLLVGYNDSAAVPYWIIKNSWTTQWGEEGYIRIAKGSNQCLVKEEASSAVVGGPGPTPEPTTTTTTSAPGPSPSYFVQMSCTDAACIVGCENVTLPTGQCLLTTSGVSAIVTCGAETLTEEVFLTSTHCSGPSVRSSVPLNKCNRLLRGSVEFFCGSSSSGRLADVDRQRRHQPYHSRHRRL

Question: Which Ki does the source give for `O=C(N[C@@H](Cc1ccc(O)cc1)C(=O)N1CC[C@@H]2[C@H]1C(=O)CN2C(=O)c1ccccc1)c1cccc2cccnc12` [Example 297, (3aR,6aS)-Quinoline-8-carboxylic acid [(1S)-2-(4-benzoyl-6-oxo-hexahydro-pyrrolo[3,2-b]pyrrole-1-yl)-1-(4-hydroxy-benzyl)-2-oxo-ethyl]-amide] here?
Answer: < 5 µM

Question: How did the Ki turn out when `O=C(N[C@@H](Cc1ccc(O)cc1)C(=O)N1CC[C@@H]2[C@H]1C(=O)CN2C(=O)c1ccc2ccccc2c1)c1cccc2ccccc12` [Example 302, (3aR,6aS)-Naphthalene-1-carboxylic acid {(1S)-1-(4-hydroxy-benzyl)-2-[4-(naphthalene-2-carbonyl)-6-oxo-hexahydro-pyrrolo[3,2-b]pyrrol-1-yl]-2-oxo-ethyl}-amide] was run?
Answer: < 5 µM

Question: With `CCn1nc(C)cc1C(=O)N[C@@H](Cc1ccc(O)cc1)C(=O)N1CC[C@@H]2[C@H]1C(=O)CN2C(=O)c1ccccc1S(C)(=O)=O` [Example 313, (3aR,6aS)-2-Ethyl-5-methyl-2H-pyrazole-3-carboxylic acid {(1S)-1-(4-hydroxy-benzyl)-2-[4-(2-methanesulfonylbenzoyl)-6-oxo-hexahydropyrrolo[3,2-b]pyrrole-1-yl]-2-oxo-ethyl}-amide] as the compound, how does the Ki read?
Answer: < 5 µM

Question: With `CN(C)c1ccc(C(=O)N[C@@H](Cc2ccc(O)cc2)C(=O)N2CC[C@@H]3[C@H]2C(=O)CN3C(=O)c2cccc([N+](=O)[O-])c2)cc1` [Example 321, (3aR,6aS)-4-Dimethylamino-N-{(1S)-1-(4-hydroxy-benzyl)-2-[4-(3-nitro-benzoyl)-6-oxo-hexahydro-pyrrolo[3,2-b]pyrrole-1-yl]-2-oxo-ethyl}-benzamide] as the compound, how does the Ki read?
Answer: < 5 µM

Question: How did the Ki turn out when `CN(C)c1ccc(C(=O)N[C@@H](Cc2ccc(O)cc2)C(=O)N2CC[C@@H]3[C@H]2C(=O)CN3C(=O)c2cccc(F)c2)cc1` [Example 322] was run?
Answer: < 5 µM

Question: Which Ki does the source give for `O=C(N[C@@H](Cc1ccc(O)cc1)C(=O)N1CC[C@@H]2[C@H]1C(=O)CN2C(=O)c1cccs1)c1cccc(Br)c1` [Example 324, (3aR,6aS)-3-Bromo-N-{(1S)-1-(4-hydroxy-benzyl)-2-oxo-2-[6-oxo-4-(thiophene-2-carbonyl)-hexahydro-pyrrolo[3,2-b]pyrrol-1-yl]-ethyl}-benzamide] here?
Answer: < 5 µM

Question: For `Cc1ccc(C(=O)N2CC(=O)[C@@H]3[C@H]2CCN3C(=O)[C@H](Cc2ccc(O)cc2)NC(=O)c2cccc(Br)c2)cc1` [Example 328, (3aR,6aS)-3-Bromo-N-{(1S)-1-(4-hydroxy-benzyl)-2-[4-(4-methyl-benzoyl)-6-oxo-hexahydro-pyrrolo[3,2-b]pyrrole-1-yl]-2-oxo-ethyl}-benzamide], which Ki is on record?
Answer: < 5 µM

Question: `O=C(N[C@@H](Cc1ccc(O)cc1)C(=O)N1CC[C@@H]2[C@H]1C(=O)CN2C(=O)c1ccccc1)c1ccccc1` [Example 333, (3aR,6aS)-N-[(1S)-2-(4-Benzoyl-6-oxo-hexahydro-pyrrolo[3,2-b]pyrrol-1-yl)-1-(4-hydroxy-benzyl)-2-oxo-ethyl]-benzamide] was tested. Which Ki did it give?
Answer: < 5 µM

Question: Which Ki does the source give for `O=C(N[C@@H](Cc1ccc(O)cc1)C(=O)N1CC[C@@H]2[C@H]1C(=O)CN2C(=O)c1ccccc1)c1cccnc1` [Example 336, (3aR,6aS)-N-[(1S)-2-(4-Benzoyl-6-oxo-hexahydro-pyrrolo[3,2-b]pyrrol-1-yl)-1-(4-hydroxy-benzyl)-2-oxo-ethyl]-nicotinamide] here?
Answer: < 5 µM

Question: Which Ki does the source give for `Cc1ccc(C(=O)N[C@@H](Cc2ccc(O)cc2)C(=O)N2CC[C@@H]3[C@H]2C(=O)CN3C(=O)c2ccccc2)cc1Br` [Example 337, (3aR,6aS)-N-[(1S)-2-(4-Benzoyl-6-oxo-hexahydro-pyrrolo[3,2-b]pyrrol-1-yl)-1-(4-hydroxy-benzyl)-2-oxo-ethyl)-3-bromo-4-methyl-benzamide] here?
Answer: < 5 µM

Question: For `COc1cccc(C(=O)N[C@@H](Cc2ccc(O)cc2)C(=O)N2CC[C@@H]3[C@H]2C(=O)CN3C(=O)c2ccccc2)c1` [Example 338, (3aR,6aS)-N-[(1S)-2-(4-Benzoyl-6-oxo-hexahydro-pyrrolo[3,2-b]pyrrol-1-yl)-1-(4-hydroxy-benzyl)-2-oxo-ethyl]-3-methoxy-benzamide], which Ki is on record?
Answer: < 5 µM

Question: With `O=C(N[C@@H](Cc1ccc(O)cc1)C(=O)N1CC[C@@H]2[C@H]1C(=O)CN2C(=O)c1ccccc1)c1cccc(OC(F)(F)F)c1` [Example 339, (3aR,6aS)-N-[(1S)-2-(4-Benzoyl-6-oxo-hexahydro-pyrrolo[3,2-b]pyrrol-1-yl)-1-(4-hydroxy-benzyl)-2-oxo-ethyl]-3-trifluoromethoxy-benzamide] as the compound, how does the Ki read?
Answer: < 5 µM

Question: For `O=C(N[C@@H](Cc1cccc(F)c1)C(=O)N1CC[C@@H]2[C@H]1C(=O)CN2C(=O)c1ccccc1)c1cccc(Br)c1` [Example 342, (3aR,6aS)-N-[(1S)-2-(4-Benzoyl-6-oxo-hexahydro-pyrrolo[3,2-b]pyrrol-1-yl)-1-(3-fluoro-benzyl)-2-oxo-ethyl]-3-bromo-benzamide], which Ki is on record?
Answer: < 5 µM

Question: How did the Ki turn out when `O=C(N[C@@H](Cc1cc(F)cc(F)c1)C(=O)N1CC[C@@H]2[C@H]1C(=O)CN2C(=O)c1ccccc1)c1cccc(Br)c1` [Example 343, (3aR,6aS)-N-[(1S)-2-(4-Benzoyl-6-oxo-hexahydro-pyrrolo[3,2-b]pyrrol-1-yl)-1-(3,5-difluoro-benzyl)-2-oxo-ethyl]-3-bromo-benzamide] was run?
Answer: < 5 µM

Question: With `O=C(N[C@@H](Cc1ccc(F)cc1)C(=O)N1CC[C@@H]2[C@H]1C(=O)CN2C(=O)c1ccccc1)c1cccc(Br)c1` [Example 344, (3aR,6aS)-N-[(1S)-2-(4-Benzoyl-6-oxo-hexahydro-pyrrolo[3,2-b]pyrrol-1-yl)-1-(4-fluoro-benzyl)-2-oxo-ethyl]-3-bromo-benzamide] as the compound, how does the Ki read?
Answer: < 5 µM

biological target: T1, CPB2.8ΔCTE (Leishmania mexicana, UniProt P36400); test: Leishmania mexicana cysteine protease B (CPB) peptidase activity assay (Ki); type: biochemical; conditions: Ki, inhibitors of Leismania mexicana CPB protease
T1 construct: Wild-type recombinant CPB without the C-terminal extention (i.e. CPB2.8ΔCTE); Dr. Jeremy Mottram (Wellcome Centre for Molecular Parasitology, University of Glasgow)
T1 sequence (P36400 126-343, stated change not applied): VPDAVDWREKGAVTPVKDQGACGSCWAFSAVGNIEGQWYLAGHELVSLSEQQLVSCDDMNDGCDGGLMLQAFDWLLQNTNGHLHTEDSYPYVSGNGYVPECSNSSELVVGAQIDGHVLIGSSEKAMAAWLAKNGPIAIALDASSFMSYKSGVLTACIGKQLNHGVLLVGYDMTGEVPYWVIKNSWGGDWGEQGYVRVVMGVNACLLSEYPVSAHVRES
Description: as §1, §2
Wild-type recombinant CPB without the C-terminal extention (i.e. CPB2.8ΔCTE; Sanderson, S. J., et. al., Biochem. J., 347, 383-388, 2000) was obtained from Dr. Jeremy Mottram (Wellcome Centre for Molecular Parasitology, The Anderson College, University of Glasgow, Glasgow, U.K.). Activity assays were carried out in 100 mM sodium acetate; pH 5.5 containing 1 mM EDTA; 200 mM NaCl and 10 mM DTT (Alves, L. C., et. al., Mol. Biochem. Parasitol, 116, 1-9, 2001) using 0.25 nM enzyme. […] The rate of conversion of substrate to product was derived from the slope of the increase in fluorescence monitored continuously over time.
as §3

Question: Which Ki does the source give for `CC(C)C[C@H](NC(=O)c1ccc(C(C)(C)C)cc1)C(=O)N1CC[C@@H]2[C@H]1C(=O)CN2C(=O)Cc1ccccc1` [Example 3, (3aR,6aS)-4-tert-Butyl-N-[(1S)-3-methyl-1-(6-oxo-4-phenylacetyl-hexahydro-pyrrolo[3,2-b]pyrrole-1-carbonyl)-butyl]-benzamide] here?
Answer: < 5 µM

Question: For `CC(C)C[C@H](NC(=O)c1ccc(N(C)C)cc1)C(=O)N1CC[C@@H]2[C@H]1C(=O)CN2C(=O)c1ccc(C(C)(C)C)cc1` [Example 75, (3aR,6aS)-N-{(1S)-1-[4-(4-tert-Butyl-benzoyl)-6-oxo-hexahydro-pyrrolo[3,2-b]pyrrole-1-carbonyl]-3-methyl-butyl}-4-dimethylamino-benzamide], which Ki is on record?
Answer: < 5 µM

Question: Which Ki does the source give for `COC(=O)c1ccc(C(=O)N2CC(=O)[C@@H]3[C@H]2CCN3C(=O)[C@H](CC(C)C)NC(=O)c2ccc(N(C)C)cc2)cc1` [Example 76, (3aS,6aR)-4-{4-[(2S)-2-(4-Dimethylamino-benzoylamino)-4-methyl-pentanoyl]-3-oxo-hexahydro-pyrrolo[3,2-b]pyrrole-1-carbonyl}-benzoic acid methyl ester] here?
Answer: < 5 µM

Question: `COc1cc(OC)cc(C(=O)N2CC(=O)[C@@H]3[C@H]2CCN3C(=O)[C@H](CC(C)C)NC(=O)c2ccc(N(C)C)cc2)c1` [Example 112, (3aR,6aS)-N-{(1S)-1-[4-(3,5-Dimethoxy-benzoyl)-6-oxo-hexahydropyrrolo[3,2-b]pyrrole-1-carbonyl]-3-methyl-butyl}-4-dimethylamino-benzamide] was tested. Which Ki did it give?
Answer: < 5 µM
